In ChEMBL document CHEMBL1131659, “Synthesis, SAR and pharmacology of CP-293,019: a potent, selective dopamine D4 receptor antagonist” (Bioorg Med Chem Lett, 1998):

Experiments:
D(4) dopamine receptor = target: T1, D(4) dopamine receptor (Homo sapiens, UniProt P21917); test: biochemical
T1 sequence (P21917 whole entry): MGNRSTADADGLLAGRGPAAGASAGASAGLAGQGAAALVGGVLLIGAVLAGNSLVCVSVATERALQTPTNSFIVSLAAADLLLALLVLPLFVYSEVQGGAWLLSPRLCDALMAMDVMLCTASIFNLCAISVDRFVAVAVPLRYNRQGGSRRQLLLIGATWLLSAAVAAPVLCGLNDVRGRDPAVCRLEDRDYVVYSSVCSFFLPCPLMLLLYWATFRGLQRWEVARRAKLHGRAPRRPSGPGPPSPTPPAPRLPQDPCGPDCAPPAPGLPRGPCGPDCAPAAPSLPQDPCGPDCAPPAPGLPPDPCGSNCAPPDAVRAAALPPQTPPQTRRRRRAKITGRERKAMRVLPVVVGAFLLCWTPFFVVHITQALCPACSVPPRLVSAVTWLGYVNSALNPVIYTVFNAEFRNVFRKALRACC
Description: In vitro binding affinity at human D4 dopamine receptor in CHO cells by [3H]spiperone displacement.

[1] = The compound was tested In Vitro for half life in human liver microsomes.; assay type: ADME, Microsome
D(3) dopamine receptor = D(3) dopamine receptor (Homo sapiens, UniProt P35462); test: In vitro binding affinity against human D3 dopamine receptor in CHO cells using [3H]spiperone; assay type: cell-based
D(3) dopamine receptor, sequence (P35462 whole entry): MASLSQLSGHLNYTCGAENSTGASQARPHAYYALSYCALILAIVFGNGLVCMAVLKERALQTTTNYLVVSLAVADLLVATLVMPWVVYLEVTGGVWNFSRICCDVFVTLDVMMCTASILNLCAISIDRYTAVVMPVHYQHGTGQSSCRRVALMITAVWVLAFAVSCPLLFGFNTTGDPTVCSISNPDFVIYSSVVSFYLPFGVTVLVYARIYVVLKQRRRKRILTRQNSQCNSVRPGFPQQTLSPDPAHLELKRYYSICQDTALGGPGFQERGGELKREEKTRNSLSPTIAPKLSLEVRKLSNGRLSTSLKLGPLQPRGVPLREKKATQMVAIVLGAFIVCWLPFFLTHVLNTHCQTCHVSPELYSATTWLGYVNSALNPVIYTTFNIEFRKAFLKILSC

[2] = In vivo maximum concentration of compound in rat plasma after a oral dose of 10 mg/kg (in water, N=4); assay type: ADME, organism-based; parameters: dose 10 mg/kg, route oral
[3] = target: T2, 5-hydroxytryptamine receptor 1A (Mus musculus, UniProt Q64264); test: In vitro binding affinity against 5-hydroxytryptamine 1A receptor in CHO cells; assay type: cell-based
T2 sequence (Q64264 whole entry): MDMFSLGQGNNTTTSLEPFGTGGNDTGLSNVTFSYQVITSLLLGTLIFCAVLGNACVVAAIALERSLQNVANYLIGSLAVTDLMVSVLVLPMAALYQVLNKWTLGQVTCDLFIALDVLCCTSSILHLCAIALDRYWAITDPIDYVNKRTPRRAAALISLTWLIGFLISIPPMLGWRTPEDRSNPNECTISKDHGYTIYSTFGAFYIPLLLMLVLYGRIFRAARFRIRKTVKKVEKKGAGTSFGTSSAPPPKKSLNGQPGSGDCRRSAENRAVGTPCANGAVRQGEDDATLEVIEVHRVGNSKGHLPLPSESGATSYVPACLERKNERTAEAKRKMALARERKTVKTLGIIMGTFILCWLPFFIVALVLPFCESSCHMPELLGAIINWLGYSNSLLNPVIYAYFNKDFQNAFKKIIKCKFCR

[4] = In vivo percentage mean absolute bioavailability of compound in rat after an oral dose of 10 mg/kg (in water, N=4); assay type: ADME, organism-based
[5] = In vivo half life of compound in rat plasma after a oral dose of 10 mg/kg (in water, N=4); assay type: ADME, organism-based; parameters: dose 10 mg/kg, route oral
Rattus norvegicus [6] = test: Compound was tested for spontaneous locomotor activity in nonhabituated rats when administered po; assay type: functional; details: read-out: ID50 (the source's name)
[7] = target: 5-hydroxytryptamine receptor 2A (Homo sapiens, UniProt P28223); test: In vitro binding affinity against 5-hydroxytryptamine 2A receptor in CHO cells; assay type: cell-based
5-hydroxytryptamine receptor 2A, sequence (P28223 whole entry): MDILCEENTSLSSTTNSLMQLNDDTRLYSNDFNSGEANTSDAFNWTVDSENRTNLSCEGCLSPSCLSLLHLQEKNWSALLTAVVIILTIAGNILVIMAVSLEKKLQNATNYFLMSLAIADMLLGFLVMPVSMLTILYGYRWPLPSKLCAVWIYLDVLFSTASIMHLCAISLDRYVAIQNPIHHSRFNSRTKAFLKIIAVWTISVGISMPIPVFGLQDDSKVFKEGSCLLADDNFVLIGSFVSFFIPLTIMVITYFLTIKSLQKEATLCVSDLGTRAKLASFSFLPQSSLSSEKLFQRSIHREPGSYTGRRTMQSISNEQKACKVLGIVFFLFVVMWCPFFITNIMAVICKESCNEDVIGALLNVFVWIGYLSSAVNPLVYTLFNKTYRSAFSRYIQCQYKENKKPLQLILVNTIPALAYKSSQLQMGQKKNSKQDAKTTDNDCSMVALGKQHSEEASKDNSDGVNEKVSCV

Rattus norvegicus [8] = test: Compound was tested for antagonistic activity against APO-induced stereotypy in rats when administered po; assay type: functional; details: read-out: ID50 (the source's name)
Rattus norvegicus [9] = test: in vivo for inhibition against hyperactivity induced by apomorphine (1.78 mg/kg) in habituated rats by oral administration; assay type: functional; details: read-out: ID50 (the source's name)
Rattus norvegicus [10] = test: in vivo for inhibition against hyperactivity induced by apomorphine (1.78 mg/kg) in habituated rats by subcutaneous administration; assay type: functional; details: sc, read-out: ID50 (the source's name)
Rattus norvegicus [11] = test: Compound was tested for inhibition of APO-induced blockade of prepulse inhibition in rats when administered sc; assay type: functional; details: read-out: ID50 (the source's name)

Row | Structure (SMILES) | Ki (D(4) dopamine receptor) [nM] | other results
1 | Fc1ccc(OC[C@@H]2CC[C@H]3CN(c4ncccn4)CCN3C2)cc1 | 2.8 | half-life [1]: 3.6 min
2 | CC(=O)Nc1ccc(OC[C@@H]2CC[C@H]3CN(c4ncccn4)CCN3C2)cc1 | 316 | –
3 | Fc1ccc(OC[C@@H]2CC[C@H]3CN(c4ccc(Cl)cn4)CCN3C2)cc1 | 3.2 | –
4 | c1ccc(OCC2CCC3CN(c4ncccn4)CCN3C2)cc1 (stereo unspecified) | 3.8 | –
5 | Fc1ccc(OC[C@H]2CC[C@@H]3CN(c4ncc(F)cn4)CCN3C2)cc1 | 106 | –
6 | Fc1ccc(OC[C@H]2CC[C@H]3CN(c4ncc(F)cn4)CCN3C2)cc1 | 2 | –
7 | COC(=O)c1ccc(OC[C@@H]2CC[C@H]3CN(c4ncccn4)CCN3C2)cc1 | 127 | –
8 | c1ccc(OC[C@@H]2CC[C@H]3CN(c4ncccn4)CCN3C2)cc1 | 3.5 | half-life [1]: 3 min
9 | Fc1ccc(OC[C@@H]2CC[C@H]3CN(c4ccc(F)cc4)CCN3C2)cc1 | 5.3 | –
10 | Fc1ccc(OC[C@@H]2CC[C@@H]3CN(c4ncc(F)cn4)CCN3C2)cc1 | 39 | –
11 | CC(C)(C)c1ccc(OC[C@@H]2CC[C@H]3CN(c4ncccn4)CCN3C2)cc1 | 20 | –
12 | c1ccc(OC[C@@H]2CC[C@H]3CN(c4ccccn4)CCN3C2)cc1 | 1.7 | –
13 | COc1ccc(OC[C@@H]2CC[C@H]3CN(c4ncccn4)CCN3C2)cc1 | 18 | –
14 | c1ccc(OC[C@@H]2CC[C@H]3CN(c4ccccc4)CCN3C2)cc1 | 1.6 | –
15 | Fc1ccc(OC[C@@H]2CC[C@H]3CN(c4ncc(F)cn4)CCN3C2)cc1 | 3.4 | Ki (D(3) dopamine receptor): > 2000 nM; Cmax [2]: 730 ng/mL; IC50 [3]: 180 nM; bioavailability [4]: 93%; half-life [1]: 12.2 min; half-life [5]: 270 min; ED50 (Rattus norvegicus [6]): > 56 mg/kg; IC50 [7]: 150 nM; ED50 (Rattus norvegicus [8]): > 56 mg/kg; ED50 (Rattus norvegicus [9]): 13.3 mg/kg; ED50 (Rattus norvegicus [10]): 10 mg/kg; ED50 (Rattus norvegicus [11]): 17.8 mg/kg
16 | c1ccc(OC[C@H]2CC[C@H]3CN(c4ncccn4)CCN3C2)cc1 (stereo in doubt; 3a) | 4.1 | –
17 | c1ccc(OC[C@H]2CC[C@H]3CN(c4ncccn4)CCN3C2)cc1 (stereo in doubt; 3b) | 1.7 | –
